Several values for one entry are separate records, joined by “and”; a condition that tells them apart may be missing. Equal entries are not always repeated. Where two headings read alike, the source gives them in different places.
Experiments:
[1] = test system: PFK; parameters: key to Effect (activator or inhibitor of PFK): “+” indicates activator; “-“ indicates inhibitor; conditions: cited from earlier work; for Effect (activator or inhibitor of PFK): published literature, ref selected references in Supplementary Table 1; for IC50 or AC50 (activator) / IC50: ref Moreno-Sanchez et al., 2012; for IC50: read-out: IC50 or AC50 (inhibitor)
[2] = molecular target: T1, recombinant human PFK-L (Homo sapiens, UniProt P17858); assay: ALDO-TIM-G3PDH enzyme-linked kinetic assay, PFK-L; assay type: biochemical
T1 construct: made in house; host or cells: PFK-deficient Saccharomyces cerevisiae
T1 sequence (P17858 1-780): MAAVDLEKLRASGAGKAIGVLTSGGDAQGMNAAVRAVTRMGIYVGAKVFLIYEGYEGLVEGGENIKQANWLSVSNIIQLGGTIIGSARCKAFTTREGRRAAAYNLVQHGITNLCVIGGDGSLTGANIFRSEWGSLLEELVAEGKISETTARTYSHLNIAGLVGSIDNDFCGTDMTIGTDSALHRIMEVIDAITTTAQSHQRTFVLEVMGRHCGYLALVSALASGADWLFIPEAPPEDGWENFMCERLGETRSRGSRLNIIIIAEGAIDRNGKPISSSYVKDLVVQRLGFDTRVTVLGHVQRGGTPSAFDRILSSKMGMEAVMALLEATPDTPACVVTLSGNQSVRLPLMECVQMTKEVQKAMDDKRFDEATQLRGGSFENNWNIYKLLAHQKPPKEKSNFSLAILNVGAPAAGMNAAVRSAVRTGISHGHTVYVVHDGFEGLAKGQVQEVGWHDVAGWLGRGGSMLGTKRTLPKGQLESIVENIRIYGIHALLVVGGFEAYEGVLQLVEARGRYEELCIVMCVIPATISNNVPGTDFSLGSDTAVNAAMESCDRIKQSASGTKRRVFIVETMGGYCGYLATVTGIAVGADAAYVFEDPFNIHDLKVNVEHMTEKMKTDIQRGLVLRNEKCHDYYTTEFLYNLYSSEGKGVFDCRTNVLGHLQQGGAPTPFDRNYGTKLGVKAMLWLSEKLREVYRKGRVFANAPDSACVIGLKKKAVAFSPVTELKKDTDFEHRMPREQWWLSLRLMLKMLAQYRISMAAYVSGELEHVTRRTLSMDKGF
Method: Recombinant human PFKs were expressed in PFK-deficient Saccharomyces cerevisiae and purified using the methods described previously, adapting earlier materials and protocols. Production of PFK intended for use in ATP titration experiments used 1 mM F6P as a tetramer stabilising agent in protein purification and storage buffers. Production of PFK intended for use in F6P titration experiments used 1 mM ATP as a tetramer stabilising agent in protein purification and storage buffers. Experimental details on the purification and characterisation procedures including figures showing SDS–PAGE gels of the highly pure PFKs used in the kinetic experiments described in this work have been recently published.
Assay buffer consisted of 50 mM TEA, 100 mM KCl, 10 mM MgCl2, 1 mM Tris(2-carboxyethyl)phosphine hydrochloride (TCEP), 10% glycerol, pH 7.4. Assay mix consisted of 5 units/ml glycerol-3-phosphate dehydrogenase (G3PDH, Sigma–Aldrich G6880), 2.5 units/ml aldolase (Sigma–Aldrich A2714), 25 units/ml triosephosphate isomerase (TIM, Sigma–Aldrich T6258), and 1.25 mM NADH. ATP and F6P were obtained from Sigma–Aldrich (A2383 and F3627, respectively). For ATP titrations, 38 µl of buffer or ligand were added to a clear non-binding 96-well plate. 40 µl of assay mix containing 10 mM F6P (final concentration 4 mM) was added and the plate was incubated at 25°C for 5 min. An amount of 2 µl of PFK isoforms were added to each well from stock concentrations of 150 µg/ml and the reaction was immediately started with 20 µl of ATP at varying concentrations. For F6P titrations, 30 µl of buffer or ligand was added to a clear non-binding 96-well plate. An amount of 40 µl of assay mix containing 1.25 mM ATP (final concentration 0.5 mM) was added and the plate was incubated at 25°C for 5 min. An amount of 5 µl of PFK isoforms were added to each well from stock concentrations of 200 µg/ml and the reaction was immediately started with 20 µl F6P at varying concentrations. All ligands and substrates (including ATP) were used at pH 7.4. All metabolites were obtained from Sigma–Aldrich unless otherwise stated. […] A SpectraMax M5 Multi-Mode Microplate Reader was used to measure A340nm at 13 s intervals for 10 min. All experiments were performed in triplicate unless otherwise stated.
Time-dependent absorbance change was converted into rate of NADH oxidation (µM s^−1) or specific activity (µmol min^−1 mg protein^−1) using the Beer-Lambert law (molar extinction coefficient of NADH 6.22 mM^−1 cm^−1). The initial rate of reaction was used to avoid accumulation of ADP, which activates PFK, interfering with the determination of kinetic properties. Non-linear regression analysis was performed on substrate titration data using GraphPad Prism 7, with curves fitted using allosteric sigmoidal models, enabling determination of steady-state kinetic values.

[3] = PFK-L, modulator 600 µM, ATP 0.5mM, N=3, mean (SD)
[4] = PFK-L, modulator 600 µM, F6P 4mM, N=3, mean (SD)
[5] = first of three values marked *, asterisk not explained
[6] = second of three values marked *, asterisk not explained
[7] = third of three values marked *, asterisk not explained
[8] = PFK-L, modulator 1200 µM, ATP 0.5mM, N=3, mean (SD)
[9] = PFK-L, modulator 1200 µM, F6P 4mM, N=3, mean (SD)
[10] = PFK-L, ATP titration, F6P 4 mM, n = 6, mean (SD)
[11] = PFK-L, control without modulator, run alongside modulator experiments, F6P 4mM, N=3, mean (SD)
[12] = PFK-L, modulator 10 µM, ATP 0.5mM, N=3, mean (SD)
[13] = PFK-L, modulator 10 µM, F6P 4mM, N=3, mean (SD)
[14] = PFK-L, GTP titration, F6P 4 mM, n = 3, mean (SD)
[15] = PFK-L, modulator 1100 µM, ATP 0.5mM, N=3, mean (SD)
[16] = PFK-L, modulator 1100 µM, F6P 4mM, N=3, mean (SD)

Nc1ncnc2c1ncn2[C@@H]1O[C@H](COP(=O)(O)OP(=O)(O)O)[C@@H](O)[C@H]1O [ADP]
Effect (activator or inhibitor of PFK) [1]: +
effect on PFK activity, in words ([2]; PFK-L): mixed effects
change in kcat^ATP/K0.5^ATP compared with control PFK without modulator ([2]; PFK-L, modulator 600 µM): −47%
change in kcat^F6P/K0.5^F6P compared with control PFK without modulator ([2]; PFK-L, modulator 600 µM): +157%
K0.5F6P + modulator [2, 3]: 872.9 (14.9) M
VmaxF6P + modulator [2, 3]: 5.65 (0.07) moles/min/mg
K0.5ATP + modulator [2, 4]: 362.0 (46.5) M
VmaxATP + modulator [2, 4]: 49.38 (2.48) moles/min/mg

Nc1ncnc2c1ncn2[C@@H]1O[C@H](COP(=O)(O)O)[C@@H](O)[C@H]1O [AMP]
IC50 or AC50 (activator) [1, 5]: 0.86 mM
Effect (activator or inhibitor of PFK) [1]: +
IC50 or AC50 (activator) [1, 6]: 5.8 mM
IC50 or AC50 (activator) [1, 7]: 1.55 mM
decrease in K0.5^F6P by AMP ([2]; PFK-L, F6P titration): more than 5 fold
change in kcat^ATP/K0.5^ATP compared with control PFK without modulator ([2]; PFK-L, modulator 1200 µM): +9%
change in kcat^F6P/K0.5^F6P compared with control PFK without modulator ([2]; PFK-L, modulator 1200 µM): +766%
K0.5F6P + modulator [2, 8]: 260.6 (8.2) M
VmaxF6P + modulator [2, 8]: 5.68 (0.06) moles/min/mg
K0.5ATP + modulator [2, 9]: 156.9 (17.6) M
VmaxATP + modulator [2, 9]: 44.45 (1.74) moles/min/mg

Nc1ncnc2c1ncn2[C@@H]1O[C@H](COP(=O)(O)OP(=O)(O)OP(=O)(O)O)[C@@H](O)[C@H]1O [ATP]
IC50 [1, 5]: 1.1 mM
Effect (activator or inhibitor of PFK) [1]: -
IC50 [1, 6]: 2.9 mM
IC50 [1, 7]: 1.75 mM
decrease in specificity constant (ATP inhibition) ([2]; PFK-L, 1 mM ATP compared with 0.5 mM ATP): 31%
K0.5^ATP [2, 10]: 160 µM and 160.1 (13.5) µM
Vmax^ATP [2, 10]: 39.3 (1.2) µmoles/min.mg
kcat^ATP [2, 10]: 57.3 (1.7) s^−1
kcat^ATP/K0.5^ATP [2, 10]: 0.36 s^−1 µM^−1 and 0.36 (0.13) s^−1 µM^−1
h (ATP) ([2]; PFK-L, Hill value, ATP titration, F6P 4 mM, n = 6, mean (SD)): 1.12 (0.08)
K0.5ATP [2, 11]: 151.2 (16.9) M and 169.0 (21.5) M
VmaxATP [2, 11]: 39.26 (1.51) moles/min/mg and 39.36 (1.80) moles/min/mg

O=C(O)CC(O)(CC(=O)O)C(=O)O [Citrate]
IC50 [1, 5]: 5.9 mM
Effect (activator or inhibitor of PFK) [1]: -
IC50 [1, 6]: 0.49 mM
IC50 [1, 7]: 6.7 mM
IC50^citrate ([2]; PFK-L, dose-response): no clear relationship
change in kcat^ATP/K0.5^ATP compared with control PFK without modulator ([2]; PFK-L, modulator 600 µM): +28%
change in kcat^F6P/K0.5^F6P compared with control PFK without modulator ([2]; PFK-L, modulator 600 µM): +2%
K0.5F6P + modulator [2, 3]: 2471 (244) M
VmaxF6P + modulator [2, 3]: 6.52 (0.71) moles/min/mg
K0.5ATP + modulator [2, 4]: 108.4 (9.5) M
VmaxATP + modulator [2, 4]: 36.14 (1.12) moles/min/mg

O=C(CO)[C@@H](O)[C@H](O)[C@H](O)COP(=O)(O)O [F6P, fructose 6-phosphate]
K0.5^F6P ([2]; PFK-L, F6P titration, ATP 0.5 mM, n = 6, mean (SD)): 1360 µM and 1360 (40) µM
K0.5F6P ([2]; PFK-L, control without modulator, run alongside modulator experiments, ATP 0.5mM, N=3, mean (SD)): 1432 (34) M and 1282 (53) M

O=P(O)(O)OC[C@H]1O[C@@](CO)(OP(=O)(O)O)[C@@H](O)[C@@H]1O [F26BP, fructose 2,6-bisphosphate]
IC50 or AC50 (activator) ([1]; first of three values marked *, unit inferred): 0.00053 mM
Effect (activator or inhibitor of PFK) [1]: +
IC50 or AC50 (activator) ([1]; second of three values marked *, unit inferred): 0.0046 mM
IC50 or AC50 (activator) ([1]; third of three values marked *, unit inferred): 0.00058 mM
effect on PFK activity, in words ([2]; PFK-L): strongly activated
decrease in AC50^F26BP for PFK-L compared with PFK-P ([2]; PFK-L vs PFK-P): > 50 fold
allosteric constant K0.5^ATP+F26BP/K0.5^ATP ([2]; PFK-L, ATP titration): 0.92
AC50 ([2]; PFK-L, activation, read-out: AC50^F26BP): 0.00017 mM
change in kcat^ATP/K0.5^ATP compared with control PFK without modulator ([2]; PFK-L, modulator 10 µM): +6.5%
change in kcat^F6P/K0.5^F6P compared with control PFK without modulator ([2]; PFK-L, modulator 10 µM): +148%
K0.5F6P + modulator [2, 12]: 698 (105) M
VmaxF6P + modulator [2, 12]: 5.07 (0.41) moles/min/mg
K0.5ATP + modulator [2, 13]: 139.4 (12.3) M
VmaxATP + modulator [2, 13]: 38.57 (1.23) moles/min/mg

Nc1nc2c(ncn2[C@@H]2O[C@H](COP(=O)(O)OP(=O)(O)OP(=O)(O)O)[C@@H](O)[C@H]2O)c(=O)[nH]1 [GTP]
K0.5^GTP [2, 14]: 158 µM and 157.8 (10.8) µM
Vmax^GTP [2, 14]: 25.39 (0.56) µmoles/min.mg
kcat^GTP [2, 14]: 37.0 (0.8) s^−1
kcat^GTP/K0.5^GTP [2, 14]: 0.23 s^−1 µM^−1 and 0.23 (0.07) s^−1 µM^−1
h (GTP) ([2]; PFK-L, Hill value, GTP titration, F6P 4 mM, n = 3, mean (SD)): 1.18 (0.08)

C=C(OP(=O)(O)O)C(=O)O [PEP, phosphoenolpyruvate]
Effect (activator or inhibitor of PFK) [1]: -
change in kcat^ATP/K0.5^ATP compared with control PFK without modulator ([2]; PFK-L, modulator 1100 µM): +1%
change in kcat^F6P/K0.5^F6P compared with control PFK without modulator ([2]; PFK-L, modulator 1100 µM): +92%
K0.5F6P + modulator [2, 15]: 952.8 (137.7) M
VmaxF6P + modulator [2, 15]: 5.36 (0.49) moles/min/mg
K0.5ATP + modulator [2, 16]: 148.7 (18.6) M
VmaxATP + modulator [2, 16]: 34.91 (1.59) moles/min/mg
